Reference: patent US11413278B2, “Compounds and methods for promoting stress resistance” (priority 2015, dated 2022)
Read-outs that look alike come from different tables or passages of the source.

Tests used:
LC3A/B puncta = assay: Autophagy induction analysis (LC3A/B puncta immuno-staining); type: cell-based, human; settings: for Exp. 2, normalized change of nuclei numbers (Less cells): 20X objective, lysosomal LAMP co-staining
Description: Immuno-staining of LC3A/B was performed, following a standard protocol. Briefly, WI-38 cells were treated with small molecules for 24 hrs, and then processed and incubated with primary antibody (Cell Signaling, rabbit anti-LC3A/B, 1:100) overnight at 4° C. Next day, samples were processed and incubated with fluorophore-conjugated secondary antibody and further incubated with DAPI dye. Images were collected on the INCell Analyzer 2000 (Experiment 1: 10× objective; Experiment 2: 20× objective) and analyzed with the Developer Toolbox. For Experiment 2, lysosomal-associated membrane protein 2 (LAMP2) was also counter-stained to identify the LC3A/B puncta that colocalize with lysosome and the data were analyzed by the MetaXpress software (Molecular Devices, version 5.1). The intensity of total (Exp. 1) or LAMP2-colocalized LC3A/B puncta (Exp. 2) was normalized the total numbers nuclei in the fields.
These assays were performed, following the same procedures to analyze DNA-damage markers. WI-38 cells were incubated with small molecules for 24 hrs, and then processed and incubated with primary antibody (rabbit anti-LC3A/B, 1:100) overnight at 4 C. The next day, samples were processed and incubated with fluorophore-conjugated secondary antibody and further incubated with DAPI dye. Images were collected on an INCell Analyzer 2000 and analyzed with the Developer software. Total LC3A/B puncta intensity was normalized the total numbers of DAPI-positive nuclei.

[1] = Summary score for characterization of 38 core set hits; settings: for D = Triple resistant: 2-point score, multiplex resistance (cadmium, MMS, H2O2); for S = Sum of Negative scores: human; for C = H2O2- & Cd-resistant: score, resistance to both H2O2 and cadmium
Description: 38 “core set” small molecules are listed and are assigned a score, based on the result for each individual characterization. From our small molecule screen for H2O2-resistance, we isolated 61 top hits. […] Specifically, a 2-point score was assigned to the most well-known and prominent longevity-related phenotypes, such as multiplex resistance, activation of FOXO3 and/or NRF2, and down-regulation of mTOR. Small molecules were also analyzed for their ability to extend C. elegans' lifespan in 4 to 6 independent trials, and the lifespan score scale is from 0 to 2: 0 for no obvious effects, 1 for lifespan extension observed in 2 trials, 2 for observed in more than 2 trials. Certain molecules appeared to have DNA-damaging effects and/or potential cell-toxicity in cultured human cells, and they receive a negative point.

[2] = test system: phosphorylated γH2A.X and TP53BP1; assay: DNA damage marker analysis (immuno-staining); settings: for activity at 10 µM: Homo sapiens, WI-38, 24 h; for P = Potential DNA-damaging / R = Potential DNA damaging: human, 24 h
Description: WI-38 cells were seeded on 96-well plates and cultured for 24 hrs and then incubated with small molecules for another 24 hrs. As the positive control to damage DNA, H2O2 was supplemented at 700 μM final concentration for the last 3 hrs. Cells were washed with phosphate-buffered saline (PBS), fixed with 4% paraformaldehyde and then blocked with 5% normal goat serum (Cell Signaling), plus 0.3% Triton X-100, for 1 hr. Primary antibody cocktail (rabbit anti-phospho-histone γH2A.X (Ser-139), 1:100; anti-phospho-TP53BP1 (Ser-1778), 1:100), prepared in 1% BSA and 0.3% Triton X-100/PBS, was then introduced and incubated overnight at 4 C. Next day, samples were washed with PBS and further incubated with fluorophore-conjugated secondary antibody (1:1,000) for 1 hr in the dark. Samples were then washed and incubated with DAPI dye (Life Technologies) (4 μg/ml final concentration) for the last 10 minutes. Images were collected on an INCell Analyzer 2000 (GE) and analyzed with the Developer software.
WI-38 cells were seeded (˜8,000 cells per well) on 96-well plates and cultured for 24 hrs and then incubated with small molecules for another 24 hrs. Doxorubicin (300 nM, 24 hrs) and H2O2 (700 μM, 3 hrs) were also introduced as the positive controls to damage DNA. Cells were washed with phosphate-buffered saline (PBS), fixed with 4% paraformaldehyde for 30 min and then blocked with 5% normal goat serum (Cell Signaling) and 0.3% Triton X-100 for 1 hr. Primary antibody cocktail (Cell Signaling, rabbit anti-phospho-histone γH2A.X (Ser-139), 1:100; anti-phospho-TP53BP1 (Ser-1778), 1:100) was prepared in PBS with 1% BSA and 0.3% Triton X-100 and incubated overnight at 4° C. Next day, samples were washed with PBS and further incubated with fluorophore-conjugated secondary antibody (1:1,000) for 1 hr in dark. Samples were then washed and incubated with DAPI dye (Life Technologies) (4 μg/ml final concentration) for 30 minutes. Images were collected on the INCell Analyzer 2000 (10× objective) and analyzed with the Developer Toolbox.

WI-38 cells [3] = assay: Long-term effects on cell viability (5 days, ATP; morphology, PI imaging); type: cell-based; settings: 10 μM; for Luminescence signal for ATP measurement, day-1 Average / Luminescence signal for ATP measurement, day-2 Average / Luminescence signal for ATP measurement, day-3 Average / Luminescence signal for ATP measurement, day-4 Average / Luminescence signal for ATP measurement, day-5 Average / viability at 10 µM: Batch 1; for Luminescence signal for ATP measurement, day-1 Average / Luminescence signal for ATP measurement, day-2 Average / Luminescence signal for ATP measurement, day-3 Average / Luminescence signal for ATP measurement, day-4 Average / Luminescence signal for ATP measurement, day-5 Average: n = 6, day-0 luminescence = 320956 ± 24708; for viability at 10 µM: Homo sapiens, WI-38, 120 h, DMSO ctrl = 100.0%, read-out: ATP luminescence by day-5 normalized; for Luminescence signal for ATP measurement, day-5 Average / viability at 10 µM: day-5; for O = Potential toxicity / Q = Potential toxicity: human, 5 days;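 on Luminescence signal for ATP measurement, day-2 Average: compounds at 10 µM with ATP read daily over 5 days of treatment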;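 on Luminescence signal for ATP measurement, day-3 Average: compounds at 10 µM with ATP read daily over 5 days of treatment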;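 on Luminescence signal for ATP measurement, day-4 Average: compounds at 10 µM with ATP read daily over 5 days of treatment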;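 on Luminescence signal for ATP measurement, day-5 Average: compounds at 10 µM with ATP read daily over 5 days of treatment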
Description: In addition, cell death was scored by PI-imaging on day 2 and day 5 of treatment.
Applicants introduced molecules (at 10 uM final concentration) to WI-38 fibroblasts and then assayed cell viability (through ATP measurement) everyday, during a course of 5 days of continuous treatment. […] Applicants also examined the morphology and scored cell death (propidium iodide staining) for cells treated with the above molecules. Of these 14 molecules, some appeared to cause cell toxicity. […] Despite the observed long-term toxicity, these molecules are still interesting as they may act as anti-tumor agents in vivo, should they have more pronounced cytotoxicity on highly proliferative tumor cells. When cells were incubated with these molecules for ˜24 hrs and then subject to hydrogen peroxide for 3 hrs, these molecules are all protective. […] Some of these small molecules may be toxic by themselves under certain conditions, but by inducing protective mechanisms, they may trigger “hormesis” and therefore protect cells from oxidative stress.

WI-38 cells [4] = assay: Propidium iodide (PI) cell-death imaging upon H2O2 stress; type: cell-based, human; settings: for Assay 7: H2O2-resistant, at 10 uM, validated by propidium iodide (PI) cell-death imaging: w/H2O2, 3 hrs/4 hrs/5 hrs, YES/NO; for cytotoxicity at 10 µM: Homo sapiens, WI-38
[5] = test system: human dermal fibroblast (HDF) primary cells; assay: H2O2-resistance in primary human dermal fibroblasts; type: cell-based; settings: for fold induction at 10 µM: Homo sapiens; for Assay 6: H2O2-resistant, at 10 uM, human dermal fibroblast (HDF) primary cells: YES/NO
[6] = Exp. 1, 10 μM, 10X objective, WI-38 cells
[7] = read-out: Experiment 1, H2A.X-P DNA damage foci staining (no H2O2 stress treatment), at 10 uM
[8] = read-out: Experiment 2, H2A.X-P DNA damage foci staining (no H2O2 stress treatment), at 10 uM
[9] = read-out: Experiment 2, H2A.X-P DNA damage foci staining (under H2O2 stress treatment), at 10 uM
[10] = read-out: Experiment 2, TP53BP1-P DNA damage foci staining (no H2O2 stress treatment), at 10 uM
[11] = read-out: Experiment 2, TP53BP1-P DNA damage foci staining (under H2O2 stress treatment), at 10 uM
[12] = H2O2 3 hrs, 10 uM, n = 6, negative control 5.44% ± 0.79%, read-out: Percentage of propidium iodide-positive dead cells (under H2O2 stress treatment), 3 hrs
[13] = H2O2 4 hrs, 10 uM, n = 6, negative control 16.81% ± 1.42%, read-out: Percentage of propidium iodide-positive dead cells (under H2O2 stress treatment), 4 hrs
[14] = pre-treatment at 10 uM, 3.5 hours of H2O2, DMSO control 27.4% ± 6.5%, */**/*** = reduced by one/two/three standard deviations, read-out: Percentage of propidium iodide-positive dead cells (under H2O2 stress treatment), at 10 uM
[15] = Experiment 1, HDF cells, read-out: Experiment 1, HDF cells (under H2O2 stress treatment), at 10 uM (fold change)
[16] = Experiment 2, HDF cells, read-out: Experiment 2, HDF cells (under H2O2 stress treatment), at 10 uM (fold change)
[17] = H2O2 5 hrs, 10 uM, n = 6, negative control 22.50% ± 1.53%, read-out: Percentage of propidium iodide-positive dead cells (under H2O2 stress treatment), 5 hrs

| Compound | Exp. 1, induction of LC3A/B puncta (Up), total intensity normalized by total number of nuclei in the fields (LC3A/B puncta; [6]) | Exp. 2, normalized change of nuclei numbers (Less cells) (LC3A/B puncta; Exp. 2, 10 μM, WI-38 cells) | Exp. 2, normalized change of nuclei numbers (Less cells) (LC3A/B puncta; Exp. 2, 20 μM, WI-38 cells) | H = Potential Autophagy Induction (LC3A/B puncta; score) | H = Potential Autophagy Induction (LC3A/B puncta; summary score) | D = Triple resistant [1] | S = Sum of Negative scores [1] | C = H2O2- & Cd-resistant [1] | activity at 10 µM [2, 7] | activity at 10 µM [2, 8] | activity at 10 µM [2, 9] | activity at 10 µM [2, 10] | activity at 10 µM [2, 11] | P = Potential DNA-damaging [2] | R = Potential DNA damaging [2] | Luminescence signal for ATP measurement, day-1 Average (WI-38 cells [3]) | Luminescence signal for ATP measurement, day-2 Average (WI-38 cells [3]) | Luminescence signal for ATP measurement, day-3 Average (WI-38 cells [3]) | Luminescence signal for ATP measurement, day-4 Average (WI-38 cells [3]) | Luminescence signal for ATP measurement, day-5 Average (WI-38 cells [3]) | further results |
| --- | --- | --- | --- | --- | --- | --- | --- | --- | --- | --- | --- | --- | --- | --- | --- | --- | --- | --- | --- | --- | --- |
| O=C(Nc1cccc(Cl)c1)c1ccc([N+](=O)[O-])o1 [Gr-1D] | p < 0.05; Up, 617%, | Less cells, 67%, | Less cells, 73%, | 1 | 1 | 0 | 1 | 1 | 232% | 353% | 164% | 353% | 554% | 1 | 1 | 396843 | 497248 | 542643 | 797305 | 865168 | Assay 15: Potential autophagy induction by LC3A/B puncta assays (LC3A/B puncta; 10 uM & 20 uM, YES/NO): YES; Exp. 1, normalized change of nuclei numbers (Less cells) (LC3A/B puncta; [6]): Less cells, 67%,; viability at 10 µM (WI-38 cells [3]): 84.3%; O = Potential toxicity (WI-38 cells [3]): 1; Q = Potential toxicity (WI-38 cells [3]): 0; Assay 7: H2O2-resistant, at 10 uM, validated by propidium iodide (PI) cell-death imaging (WI-38 cells [4]; 10 uM): YES; cytotoxicity at 10 µM (WI-38 cells [4]; [12]): 6.27%; cytotoxicity at 10 µM (WI-38 cells [4]; [13]): 5.83%; cytotoxicity at 10 µM (WI-38 cells [4]; [14]): 36.7%; fold induction at 10 µM [5, 15]: 2.79; fold induction at 10 µM [5, 16]: 49.3; Assay 6: H2O2-resistant, at 10 uM, human dermal fibroblast (HDF) primary cells [5]: YES |
| O=C(Nc1cccc(C(F)(F)F)c1)c1ccc([N+](=O)[O-])o1 [Gr-1E] | Up, 260%, p < 0.01 | Less cells, 75%, | Less cells, 58%, | 0 | 0 | 0 | 0 | 1 | 162% | 107% | 151% | 289% | 475% | 0 | 0 | 474558 | 698358 | 788420 | 1038011 | 1066135 | viability at 10 µM (WI-38 cells [3]): 104%; O = Potential toxicity (WI-38 cells [3]): 0; Q = Potential toxicity (WI-38 cells [3]): 0; Assay 7: H2O2-resistant, at 10 uM, validated by propidium iodide (PI) cell-death imaging (WI-38 cells [4]; 10 uM): YES; cytotoxicity at 10 µM (WI-38 cells [4]; [12]): 1.68%; cytotoxicity at 10 µM (WI-38 cells [4]; [13]): 2.95%; cytotoxicity at 10 µM (WI-38 cells [4]; [17]): 3.44%; cytotoxicity at 10 µM (WI-38 cells [4]; [14]): 18.8%; fold induction at 10 µM [5, 15]: 1.4; fold induction at 10 µM [5, 16]: 31; Assay 6: H2O2-resistant, at 10 uM, human dermal fibroblast (HDF) primary cells [5]: YES |
| Cc1ccc(NC(=O)c2ccc([N+](=O)[O-])o2)cc1C [Gr-1F] | Up, 151%, p < 0.01 | Less cells, 82%, | Less cells, 73%, | 0 | 0 | 0 | 2 | 1 | 219% | 378% | 127% | 460% | 558% | 1 | 1 | 383221 | 440655 | 446240 | 534298 | 600633 | viability at 10 µM (WI-38 cells [3]): 58.5%; O = Potential toxicity (WI-38 cells [3]): 1; Q = Potential toxicity (WI-38 cells [3]): 1; Assay 7: H2O2-resistant, at 10 uM, validated by propidium iodide (PI) cell-death imaging (WI-38 cells [4]; 10 uM): YES; cytotoxicity at 10 µM (WI-38 cells [4]; [12]): 3.55%; cytotoxicity at 10 µM (WI-38 cells [4]; [13]): 3.07%; cytotoxicity at 10 µM (WI-38 cells [4]; [17]): 4.57%; cytotoxicity at 10 µM (WI-38 cells [4]; [14]): 11.2%; fold induction at 10 µM [5, 15]: 5.84; fold induction at 10 µM [5, 16]: 52.3; Assay 6: H2O2-resistant, at 10 uM, human dermal fibroblast (HDF) primary cells [5]: YES |
